# In patent US20230392111A1, “COMPOSITION FOR PROMOTING THE GROWTH OF LACTIC ACID BACTERIA COMPRISING GROWTH FACTORS” (priority 2020, published 2023):
# Experiments:
# Assay in all cases: Viable cell count after culture in supplemented BL broth
# Type in all cases: cell-based
# Conditions in all cases: Exp. Ex. 1 carbon source; 2 parts by weight in 100 parts BL broth; 20 hours; pH about 5.0 to 6.5
# [1] = test system: Bifidobacterium bifidum CBT-BF3 (KCTC 12199BP)
# Method: (§1) To promote the growth of non-specific various types of lactic acid bacteria, an optimal mixture composition was determined by culturing each of the following strains using each component, ratio and composition and measuring the viable cell count of each of the strains: Lactobacillus casei CBT-LC5 (accession number: KCTC 12398BP), Lactobacillus plantarum CBT-LP3 (accession number: KCTC 10782BP), Lactobacillus rhamnosus CBT-LR5 (accession number: KCTC 12202BP), Bifidobacterium longum CBT-BG7 (accession number: KCTC 12200BP), Bifidobacterium lactis CBT-BL3 (accession number: KCTC 11904BP), Bifidobacterium bifidum CBT-BF3 (accession number: KCTC 12199BP), Streptococcus thermophilus CBT-ST3 (accession number: KCTC 11870BP), and Pediococcus pentosaceus CBT-SL4 (accession number: KCTC 10297BP). Starter cultures were prepared using BL broth.
# (§2) 0.1 to 1 part by weight of each of the starter cultures was inoculated into 100 parts by weight of each prepared medium, and then cultured for 20 hours while the pH was maintained at about 5.0 to 6.5. […] Thus, glucose or fructooligosaccharide was selected as a carbon source for a subsequent experiment (Table 2). […]
# (§3) 0.1 to 1 part by weight of each starter culture was inoculated into 100 parts by weight of each of the prepared media, and then cultured for 20 hours while the pH was maintained at about 5.0 to 6.5. […]
# [2] = test system: Bifidobacterium lactis CBT-BL3 (KCTC 11904BP)
# Method: as §1, §2, §3
# [3] = test system: Bifidobacterium longum CBT-BG7 (KCTC 12200BP)
# Method: as §1, §2, §3
# [4] = test system: Lactobacillus casei CBT-LC5 (KCTC 12398BP)
# Method: as §1, §2, §3
# [5] = test system: Lactobacillus plantarum CBT-LP3 (KCTC 10782BP)
# Method: as §1, §2, §3
# [6] = test system: Lactobacillus rhamnosus CBT-LR5 (KCTC 12202BP)
# Method: as §1, §2, §3
# [7] = test system: Pediococcus pentosaceus CBT-SL4 (KCTC 10297BP)
# Method: as §1, §2, §3
# [8] = test system: Streptococcus thermophilus CBT-ST3 (KCTC 11870BP)
# Method: as §1, §2, §3
compound,measurement,setting,value
O=C(CO)[C@@H](O)[C@H](O)[C@H](O)CO [Fructose],viable cell count,[1],434 ×10^7 cfu/ml
same,viable cell count,[2],522 ×10^7 cfu/ml
same,viable cell count,[3],405 ×10^7 cfu/ml
same,viable cell count,[4],408 ×10^7 cfu/ml
same,viable cell count,[5],452 ×10^7 cfu/ml
same,viable cell count,[6],486 ×10^7 cfu/ml
same,viable cell count,[7],550 ×10^7 cfu/ml
same,viable cell count,[8],402 ×10^7 cfu/ml
OC[C@H]1O[C@@H](O[C@H]2[C@H](O)[C@@H](O)C(O)O[C@@H]2CO)[C@H](O)[C@@H](O)[C@H]1O (stereo partly drawn) [Lactose],viable cell count,[1],460 ×10^7 cfu/ml
same,viable cell count,[2],420 ×10^7 cfu/ml
same,viable cell count,[3],456 ×10^7 cfu/ml
same,viable cell count,[4],405 ×10^7 cfu/ml
same,viable cell count,[5],550 ×10^7 cfu/ml
same,viable cell count,[6],405 ×10^7 cfu/ml
same,viable cell count,[7],520 ×10^7 cfu/ml
same,viable cell count,[8],450 ×10^7 cfu/ml
OC[C@H]1O[C@@](CO)(O[C@H]2O[C@H](CO)[C@@H](O)[C@H](O)[C@H]2O)[C@@H](O)[C@@H]1O [Refined sugar],viable cell count,[1],325 ×10^7 cfu/ml
same,viable cell count,[2],472 ×10^7 cfu/ml
same,viable cell count,[3],464 ×10^7 cfu/ml
same,viable cell count,[4],482 ×10^7 cfu/ml
same,viable cell count,[5],427 ×10^7 cfu/ml
same,viable cell count,[6],425 ×10^7 cfu/ml
same,viable cell count,[7],580 ×10^7 cfu/ml
same,viable cell count,[8],504 ×10^7 cfu/ml
